Reference: paper PMC10454409, “Hybrids of Sterically Hindered Phenols and Diaryl Ureas: Synthesis, Switch from Antioxidant Activity to ROS Generation and Induction of Apoptosis” (International Journal of Molecular Sciences, 2023)

How the values were obtained:
[1] = test system: MCF-7 cells (human breast adenocarcinoma); experiment: MTT cytotoxicity test, MCF-7; assay type: cell-based; conditions: Homo sapiens, MCF7, MTT test; 24 h incubation per text, 48 h per method
How it was run: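 Viable MCF-7 cells quantified by MTT reduction to formazan, dissolved in DMSO and read at 540 nm. Triplicate experiments.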

DPPH antiradical assay = conditions: DPPH 100 μM
Protocol: Figure 4 Antioxidant potential of the tested compounds. (a) Inhibition of lipid peroxidation (LPO) in rat brain homogenates (2 mg/mL) initiated by Fe(II) ions (concentration of 500 µM) in the tested compounds at a concentration of 100 µM. (b) Concentration dependences of LPO inhibition for the studied compounds in the concentration range from 1 µM to 100 µM. (c) Oxygen Radical Absorbance Capacity (ORAC) of the studied compounds and ORAC values expressed as Trolox equivalent (TE). (d) DPPH antiradical activity of the compounds under study and DPPH values expressed as TE. The concentration of studied compounds and Trolox was 100 µM, the concentration of DPPH was 100 μM, and the concentration of AAPH was […]. Statistical significance was assessed using one-way ANOVA and Dunnett’s multiple comparison tests, where **** p < 0.0001, *** p < 0.001 and ** p < 0.01 vs. control. […]

HuTu 80 cells = experiment: Intracellular ROS level, CellROX Deep Red flow cytometry; assay type: cell-based, human; conditions: 48 h incubation, maximum concentration (IC50)
[2] = test system: isolated rat liver mitochondria; experiment: Membrane potential of isolated mitochondria (Safranin A); assay type: biochemical; conditions: for Depolarization of mitochondrial membrane: isolated mitochondria
Protocol: The membrane potential of rat […] mitochondria was measured with a Victor 3 plate analyzer (Perkin Elmer, Hamburg, Germany) using the potential-dependent indicator Safranin A [57]. The mitochondrial preparation was diluted in a buffer containing mannitol (225 mM) (Dia-M, Moscow, Russia), sucrose (75 mM) (Sigma Aldrich, Saint Louis, MO, USA), HEPES (10 mM) (Gibco, Scotland, UK), EGTA (20 µM) (Dia-M, Moscow, Russia) and KH2PO4 (1 mM) at pH = 7.4 at a ratio of 0.5 mg of protein to 1 mL of medium. Safranin A (5 µM) was added to the suspension immediately before the start of the measurement. The organelles were then energized by potassium succinate (5 mM) in the presence of rotenone (1 µM). Mitochondrial pore opening was induced by the addition of CaCl2 (25 µM).
Figure 8 Effect of the synthesized compounds on the membrane potential of rat liver mitochondria. (a) Kinetic lines of transmembrane potential changes at λex = 458 nm and λem = 590 nm. The concentration of the test substances was 100 µM. (b) Calculated parameters of % depolarization relative to control samples. Statistical significance was assessed using one-way ANOVA and Dunnett’s multiple comparison tests, where **** p < 0.0001 vs. control. (c) Concentration dependence of the effects of 11b and 17b on mitochondrial membrane potential. The concentration of the test substances was from 20 to 200 µM. Concentration of ions; Ca^2+—25 µM. Mitochondria were energized by potassium succinate and rotenone. Data are presented as mean±error of the mean (n = 3).

CCOP(=O)(OCC)C(c1cc(C(C)(C)C)c(O)c(C(C)(C)C)c1)c1ccc(NC(=O)Nc2ccc([N+](=O)[O-])cc2)cc1NC(=O)Nc1ccc([N+](=O)[O-])cc1 (stereo not shown) [17b]
IC50 [1]: 51 ± 4.2 µM | DPPH antiradical activity (DPPH antiradical assay; compound 100 µM): 64.8 ± 0.7% | DPPH value (Trolox equivalent) (DPPH antiradical assay; compounds and Trolox 100 µM): 1.27 Trolox equivalent | Intracellular ROS level (HuTu 80 cells): 400.2 ± 5.2% | Depolarization of mitochondrial membrane ([2]; compound 100 μM): 50% | Depolarization of mitochondrial membrane ([2]; compound 200 μM): ~100% | Depolarization relative to control (class in Figure 8b) ([2]; isolated rat liver mitochondria, compound 100 µM): High Depolarization
